Test results published in patent US9862707B2, “TrkA kinase inhibitors, compositions and methods thereof” (Merck Sharp & Dohme Corp., priority 2014, dated 2018).

Target: human TrkA receptor (Homo sapiens (Human), UniProt P04629)
Assay: TrkA functional activity, DiscoverX PathHunter assay
Format: cell-based
Details: U2OS cells expressing human TrkA-PK, Shc1-EA and p75NTR; compound 1 h, then NGF at ~80% of maximal response for 3 h; luminescence

Sequence of human TrkA receptor (P04629 33-796): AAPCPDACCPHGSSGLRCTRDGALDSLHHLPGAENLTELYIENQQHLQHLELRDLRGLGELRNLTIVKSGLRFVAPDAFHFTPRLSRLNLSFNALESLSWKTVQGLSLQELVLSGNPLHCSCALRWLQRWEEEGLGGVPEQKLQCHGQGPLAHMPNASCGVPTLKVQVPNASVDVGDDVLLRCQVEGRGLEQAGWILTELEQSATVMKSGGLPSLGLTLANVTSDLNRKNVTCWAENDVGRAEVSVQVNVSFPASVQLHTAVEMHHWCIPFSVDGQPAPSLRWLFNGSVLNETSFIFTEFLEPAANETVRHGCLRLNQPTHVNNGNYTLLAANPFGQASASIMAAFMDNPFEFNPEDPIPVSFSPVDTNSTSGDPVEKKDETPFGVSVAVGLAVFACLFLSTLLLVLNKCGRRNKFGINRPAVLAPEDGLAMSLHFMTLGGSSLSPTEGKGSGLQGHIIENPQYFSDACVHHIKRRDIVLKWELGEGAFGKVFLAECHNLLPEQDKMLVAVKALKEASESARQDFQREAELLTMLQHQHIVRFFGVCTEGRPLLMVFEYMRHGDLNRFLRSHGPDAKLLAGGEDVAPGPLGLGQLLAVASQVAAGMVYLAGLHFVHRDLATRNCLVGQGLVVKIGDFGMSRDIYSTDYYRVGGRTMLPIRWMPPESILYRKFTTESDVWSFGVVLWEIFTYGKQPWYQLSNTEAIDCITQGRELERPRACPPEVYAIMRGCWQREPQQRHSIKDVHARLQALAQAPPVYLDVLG

| SMILES | IC50 [nM] |
| --- | --- |
| Cn1ccc(-c2cc(C(=O)Nc3c4cc(CO)ncc4nn3-c3ccccc3)c(F)cc2C(F)(F)F)n1 [Compound 18, 2-fluoro-N-[5-(hydroxymethyl)-2-phenyl-2H-pyrazolo[3,4-c]pyridin-3-yl)-5-(1-methyl-1H-pyrazol-3-yl)-4-(trifluoromethyl)benzamide] | 1.9 |
| CC(O)c1ccc2c(NC(=O)c3cc(-c4ncccn4)c(C(F)(F)F)cc3Cl)n(-c3ccccc3)nc2c1 (single isomer, unassigned; isomer b) [Compound 38, (R or S)-2-chloro-N-[6-(1-hydroxyethyl)-2-phenyl-2H-indazol-3-yl]-5-pyrimidin-2-yl-4-(trifluoromethyl)benzamide, isomer B] | 4.9 |
| CN(C)Cc1ccc2nn(-c3ccccc3)c(NC(=O)c3ccc(C(F)(F)F)c(-c4ccn(C)n4)c3)c2c1 [Compound 68, N-{5-[(dimethylamino)methyl]-2-phenyl-2H-indazol-3-yl}-3-(1-methyl-1H-pyrazol-3-yl)-4-(trifluoromethyl)benzamide] | 21 |
| NC(=O)c1cnc2c(NC(=O)c3cc(-c4ccccn4)c(C(F)(F)F)cc3F)n(-c3ccccc3)nc2c1 [Compound 84, 3-({[2-fluoro-5-pyridin-2-yl-4-(trifluoromethyl)phenyl]carbonyl}amino)-2-phenyl-2H-pyrazolo[4,3-b]pyridine-6-carboxamide] | 2.6 |
| Cn1ccc(-c2cc(C(=O)Nc3c4ccc(CN)cc4nn3-c3ccccc3)c(F)cc2C(F)(F)F)n1 [Compound 71, N-[6-(aminomethyl)-2-phenyl-2H-indazol-3-yl]-2-fluoro-5-(1-methyl-1H-pyrazol-3-yl)-4-(trifluoromethyl)benzamide] | 1.8 |
| CC(C)(O)c1ccc2c(NC(=O)c3cc(-c4ncccn4)c(C(F)(F)F)cc3Cl)n(-c3ccccc3)nc2c1 [Compound 46, 2-chloro-N-[6-(1-hydroxy-1-methylethyl)-2-phenyl-2H-indazol-3-yl]-5-pyrimidin-2-yl-4-(trifluoromethyl)benzamide] | 1.7 |
| NC(=O)c1cnc2c(NC(=O)c3cc(-c4ncccn4)c(C(F)(F)F)cc3F)n(-c3ccccc3)nc2c1 [Compound 75, 3-(2-Fluoro-5-(pyrimidin-2-yl)-4-(trifluoromethyl)benzamido)-2-phenyl-2H-pyrazolo[4,3-b]pyridine-6-carboxamide] | 7.2 |
| CC(O)c1cnc2c(NC(=O)c3cc(-c4ccn(C)n4)c(C(F)(F)F)cc3F)n(-c3ccccc3)nc2c1 (single isomer, unassigned; isomer a) [Compound 33, (R or S)-2-fluoro-N-[6-(1-hydroxyethyl)-2-phenyl-2H-pyrazolo[4,3-b]pyridin-3-yl]-5-(1-methyl-1H-pyrazol-3-yl)-4-(trifluoromethyl)benzamide, isomer A] | 0.25 |
| CC(O)c1cnc2c(NC(=O)c3cc(-c4cc[nH]n4)c(C(F)(F)F)cc3F)n(-c3ccccc3)nc2c1 (single isomer, unassigned) [Compound 21, 2-Fluoro-N-(6-(1-hydroxyethyl)-2-phenyl-2H-pyrazolo[4,3-b]pyridin-3-yl)-5-(1H-pyrazol-3-yl)-4-(trifluoromethyl)benzamide, isomers A and B] | 0.69 |
| NC(=O)c1ccc2c(NC(=O)c3cc(-c4cc[nH]n4)c(C(F)(F)F)cc3F)n(-c3ccccc3)nc2c1 [Compound 78, 3-({[2-fluoro-5-(1H-pyrazol-3-yl)-4-(trifluoromethyl)phenyl]carbonyl}amino)-2-phenyl-2H-indazole-6-carboxamide] | 3.6 |
| NCc1cnc2c(NC(=O)c3cc(-c4ncccn4)c(C(F)(F)F)cc3F)n(-c3ccccc3)nc2c1 [Compound 66, N-(6-(Aminomethyl)-2-phenyl-2H-pyrazolo[4,3-b]pyridin-3-yl)-2-fluoro-5-(pyrimidin-2-yl)-4-(trifluoromethyl)benzamide] | 71 |
| Cc1ccccc1-n1nc2cc(C(N)=O)ccc2c1NC(=O)c1cc(-c2ccn(C)n2)c(C(F)(F)F)cc1F [Compound 77, 3-(2-Fluoro-5-(1-methyl-1H-pyrazol-3-yl)-4-(trifluoromethyl)benzamido)-2-(o-tolyl)-2H-indazole-6-carboxamide] | 1.3 |
| Cn1ccc(-c2cc(C(=O)Nc3c4ccc([C@H](N)C(F)(F)F)cc4nn3-c3ccccc3)ccc2C(F)(F)F)n1 [Compound 101, (S)—N-(6-(1-Amino-2,2,2-trifluoroethyl)-2-phenyl-2H-indazol-3-yl)-3-(1-methyl-1H-pyrazol-3-yl)-4-(trifluoromethyl)benzamide] | 1.8 |
| Cn1ccc(-c2cc(C(=O)Nc3c4cc(CO)ccc4nn3-c3ccccc3)ccc2C(F)(F)F)n1 [Compound 10, N-(5-(Hydroxymethyl)-2-phenyl-2H-indazol-3-yl)-3-(1-methyl-1H-pyrazol-3-yl)-4-(trifluoromethyl)benzamide] | 0.84 |
| CC(O)c1ccc2c(NC(=O)c3cc(-c4ncccn4)c(C(F)(F)F)cc3F)n(-c3ccccc3)nc2c1 (single isomer, unassigned) [Compound 20, (R and S)-2-Fluoro-N-(6-(1-hydroxyethyl)-2-phenyl-2H-indazol-3-yl)-5-(pyrimidin-2-yl)-4-(trifluoromethyl)benzamide, isomers A and B] | 2.9 |
| O=C(Nc1c2cc(C(O)C(F)F)ccc2nn1-c1ccccc1)c1cc(-c2ncccn2)c(C(F)(F)F)cc1F (single isomer, unassigned; isomer b) [Compound 59, (R or S)-N[5-(2,2-difluoro-1-hydroxyethyl)-2-phenyl-2H-indazol-3-yl]-2-fluoro-5-pyrimidin-2-yl-4-(trifluoromethyl)benzamide, isomer B] | 4.9 |
| CC(C)(O)c1cnc2c(NC(=O)c3cc(-c4cc[nH]n4)c(C(F)(F)F)cc3F)n(-c3ccccc3)nc2c1 [Compound 47, 2-fluoro-N-[6-(1-hydroxy-1-methylethyl)-2-phenyl-2H-pyrazolo[4,3-b]pyridin-3-yl]-5-(1H-pyrazol-3-yl)-4-(trifluoromethyl)benzamide] | 2.6 |
| O=C(Nc1c2ncc(C(O)CO)cc2nn1-c1ccccc1)c1cc(-c2ncccn2)c(C(F)(F)F)cc1Cl (single isomer, unassigned; isomer a) [Compound 64, (R or S)-2-chloro-N-[6-(1,2-dihydroxyethyl)-2-phenyl-2H-pyrazolo[4,3-b]pyridin-3-yl]-5-pyrimidin-2-yl-4-(trifluoromethyl)benzamide, isomer A] | 15 |
| O=C(Nc1c2ncccc2nn1-c1ccccc1)c1cc(-c2ncccn2)c(C(F)(F)F)cc1F [Compound 1, 2-Fluoro-N-(2-phenyl-2H-pyrazolo[4,3-b]pyridin-3-yl)-5-pyrimidin-2-yl-4-(trifluoromethyl)benzamide] | 5.2 |
| CC(O)c1ccc2c(NC(=O)c3cc(-c4ncccn4)c(C(F)(F)F)cc3F)n(-c3ccccc3)nc2c1 (single isomer, unassigned) [Compound 19, (R and S)-2-Fluoro-N-(6-(1-hydroxyethyl)-2-phenyl-2H-indazol-3-yl)-5-(pyrimidin-2-yl)-4-(trifluoromethyl)benzamide, isomers A and B] | 1.9 |
| CC(O)c1ccc2nn(-c3ccccc3)c(NC(=O)c3cc(-c4cc[nH]n4)c(C(F)(F)F)cc3F)c2n1 (single isomer, unassigned; isomer b) [Compound 32, (R or S)-2-fluoro-N-[5-(1-hydroxyethyl)-2-phenyl-2H-pyrazolo[4,3-b]pyridin-3-yl]-5-(1H-pyrazol-3-yl)-4-(trifluoromethyl)benzamide, isomer B] | 5.1 |
| CC(=O)NCc1cccc(-n2nc3cccnc3c2NC(=O)c2cc(-c3ncccn3)c(C(F)(F)F)cc2F)c1 [Compound 9, N-(2-{3-[(acetylamino)methyl]phenyl}-2H-pyrazolo[4,3-b]pyridin-3-yl)-2-fluoro-5-pyrimidin-2-yl-4-(trifluoromethyl)benzamide] | 744 |
| CC(O)c1ccc2c(NC(=O)c3cc(-c4ncccn4)c(C(F)(F)F)cc3Cl)n(-c3ccccc3)nc2c1 (single isomer, unassigned; isomer a) [Compound 37, (R or S)-2-chloro-N-[6-(1-hydroxyethyl)-2-phenyl-2H-indazol-3-yl]-5-pyrimidin-2-yl-4-(trifluoromethyl)benzamide, isomer A] | 4.4 |
| Cn1ccc(-c2cc(C(=O)Nc3c4cc(C(F)(F)F)ccc4nn3-c3ccccc3)c(F)cc2C(F)(F)F)n1 [Compound 7, 2-fluoro-5-(1-methyl-1H-pyrazol-3-yl)-N-[2-phenyl-5-(trifluoromethyl)-2H-indazol-3-yl]-4-(trifluoromethyl)benzamide] | 29 |
| CC(O)c1cnc2c(NC(=O)c3cc(-c4ncccn4)c(C(F)(F)F)cc3F)n(-c3ccccc3)nc2c1 (single isomer, unassigned; isomer a) [Compound 29, (R or S)-2-fluoro-N-[6-(1-hydroxyethyl)-2-phenyl-2H-pyrazolo[4,3-b]pyridin-3-yl]-5-pyrimidin-2-yl-4-(trifluoromethyl)benzamide, isomer A] | 1.8 |
| Cn1ccc(-c2cc(C(=O)Nc3c4ccc([C@@H](N)C(F)(F)F)cc4nn3-c3ccccc3)ccc2C(F)(F)F)n1 [Compound 100] | 2.7 |
| O=C(Nc1c2nc(CO)ccc2nn1-c1ccccc1)c1cc(-c2ncccn2)c(C(F)(F)F)cc1Cl [Compound 17, 2-chloro-N-[5-(hydroxymethyl)-2-phenyl-2H-pyrazolo[4,3-b]pyridin-3-yl]-5-pyrimidin-2-yl-4-(trifluoromethyl)benzamide] | 18 |
| NC(=O)c1ccc2c(NC(=O)c3cc(-c4ccccn4)c(C(F)(F)F)cc3F)n(-c3ccccc3)nc2c1 [Compound 81, 3-({[2-fluoro-5-pyridin-2-yl-4-(trifluoromethyl)phenyl]carbonyl}amino)-2-phenyl-2H-indazole-6-carboxamide] | 2.9 |
| O=C(Nc1c2ccc(CO)cc2nn1-c1ccccc1)c1cc(-c2cc[nH]n2)c(C(F)(F)F)cc1F [Compound 14, 2-fluoro-N-[6-(hydroxymethyl)-2-phenyl-2H-indazol-3-yl]-5-(1H-pyrazol-3-yl)-4-(trifluoromethyl)benzamide] | 1.2 |
